These results are taken from patent US20260285857A1, “BICYCLIC AND HETEROCYCLIC AMIDE COMPOUNDS” (priority 2024, published 2026).

The test system of one assay is immunoglobulin light chain protein WIL-FL T46L. Put plainly: Differential scanning fluorimetry (thermal shift) assay. It counts as binding. The following applies: Table A; temperature shift [Tm]compound-[Tm]vehicle; recombinant WIL-FL T46L.
In the case of `Cc1cc(N2CC[C@](C)(c3ccccc3)C2)cn2nc(C(=O)NC3CCC34CN(c3cccc(C(=O)O)n3)C4)nc12` (stereo partly drawn) [Compound 228], the DSF entry is listed as “***** (>2.5° C.=*****)”.
The same measure, in the same setting: the entry for `Cc1cc(N2CC[C@](C)(c3ccccc3)C2)cn2nc(C(=O)NCC(C)(C)C(=O)O)nc12` [Compound 136] is “***** (>2.5° C.=*****)”.
On the same count and under the same terms, the entry for `Cc1cc(N2CCOC(C)(c3ccccc3)C2)cn2nc(C(=O)N3CC4CN(c5cccc(C(=O)O)n5)CC4C3)nc12` (stereo not drawn) [Compound 432] is “* (0-0.5° C.=*)”; for `Cc1cc(N2CC[C@](C)(c3ccc(Cl)c(Cl)c3)C2)cn2nc(C(=O)N3CC[C@@]4(CCN(c5cccc(C(=O)O)n5)C4)C3)nc12` [Compound 37, 6-[(5R)-2-[6-[(3R)-3-(3,4-dichlorophenyl)-3-methyl-pyrrolidin-1-yl]-8-methyl-[1,2,4]triazolo[1,5-a]pyridine-2-carbonyl]-2,7-diazaspiro[4.4]nonan-7-yl]pyridine-2-carboxylic acid] it is “***** (>2.5° C.=*****)”.
Turning to `COC(=O)c1cc(N2CCC(NC(=O)c3nc4c(C)cc(N5CC[C@](C)(c6ccccc6)C5)cn4n3)CC2)ccn1` [Compound 263], the DSF entry is recorded as “***** (>2.5° C.=*****)”.
As to `Cc1cc(N2CC[C@](C)(c3ccccc3)C2)cn2nc(C(=O)NC3CCC(c4cccc(C(=O)O)n4)OC3)nc12` (stereo partly drawn) [Compound 254], the DSF result is on record as “***** (>2.5° C.=*****)”.
On the same count and under the same terms, the entry for `Cc1cc(N2CC[C@](C)(c3ccccc3)C2)cn2nc(C(=O)NC34CCC(O)(C3)C4)nc12` [Compound 111] is “***** (>2.5° C.=*****)”; for `Cc1cc(N2CC[C@](C)(c3ccccc3)C2)cn2nc(C(=O)N3CCn4c(nnc4-c4cccc(C(=O)O)n4)C3)nc12` [Compound 408] it is “***** (>2.5° C.=*****)”.
The same measure, in the same setting: the entry for `CNC(=O)c1nc2c(C)cc(N3CC[C@](C)(c4ccccc4)C3)cn2n1` [Compound 170] is “***** (>2.5° C.=*****)”; for `Cc1cc(N2CC[C@](C)(c3ccccc3)C2)cn2nc(C(=O)N3CCC4(COC4)C3)nc12` [Compound 113] it is “***** (>2.5° C.=*****)”; for `Cc1cc(N2CC[C@](C)(c3ccccc3)C2)cn2nc(C(=O)NCC34COC(C3)C4)nc12` [Compound 122] it is “***** (>2.5° C.=*****)”.
Still for that read-out and setting: the entry for `Cc1cc(N2CC[C@](C)(c3ccccc3)C2)cn2nc(C(=O)NC3CCC(F)(F)C3)nc12` (stereo partly drawn) [Compound 154] is “***** (>2.5° C.=*****)”.
`Cc1cc(N2CC[C@](C)(c3ccccc3)C2)cn2nc(C(=O)NCC3(O)CC3)nc12` [Compound 120]: the DSF entry is “***** (>2.5° C.=*****)”.
With `Cc1cc(N2CC[C@](C)(c3ccccc3)C2)cn2nc(C(=O)N3CC4CN(c5cccc(C(=O)O)n5)CC4(O)C3)nc12` (stereo partly drawn) [Compound 246], the DSF result is “***** (>2.5° C.=*****)”.
The same measure, in the same setting: the entry for `Cc1cc(N2CC[C@](C)(c3ccccc3)C2)cn2nc(C(=O)N3CCC4(CCN(c5ccnc(C(=O)O)n5)C4)C3)nc12` (stereo partly drawn) [Compound 266] is “***** (>2.5° C.=*****)”; for `Cc1cc(N2CC[C@](C)(c3ccccc3)C2)cn2nc(C34CC(NC(=O)Cn5ncnc5C)(CO3)C4)nc12` [Compound 62] it is “***** (>2.5° C.=*****)”.
For the compound `CC(=O)Nc1n[nH]c(C2C3COC2(c2nc4c(C)cc(N5CC[C@](C)(c6ccccc6)C5)cn4n2)C3)n1` (stereo partly drawn) [Compound 10, N-[5-[1-[8-methyl-6-[(3R)-3-methyl-3-phenyl-pyrrolidin-1-yl]-[1,2,4]triazolo[1,5-a]pyridine-2-yl]-2-oxabicyclo[2.1.1]hexan-5-yl]-1H-1,2,4-triazol-3-yl]acetamide], the DSF entry is reported as “***** (>2.5° C.=*****)”.
On the same count and under the same terms, the entry for `Cc1cc(N2CC[C@](C)(c3ccccc3)C2)cn2nc(C(=O)NC3CCN(c4ccnc(S(C)(=N)=O)c4)CC3)nc12` (stereo partly drawn) [Compound 283] is “***** (>2.5° C.=*****)”; for `Cc1cc(N2CC[C@](C)(c3ccccc3)C2)cn2nc(C(=O)N3CCN(S(C)(=O)=O)CC3)nc12` [Compound 144] it is “***** (>2.5° C.=*****)”.
On the same count and under the same terms, the entry for `Cc1cc(N2CC[C@](C)(c3ccccc3)C2)cn2nc(C(=O)NC3CCC(N4CC5C(C4)C5C(=O)O)C3)nc12` (stereo partly drawn) [Compound 365] is “***** (>2.5° C.=*****)”; for `Cc1cc(N2CC[C@](C)(c3ccccc3)C2)cn2nc(C(=O)N3CC4(CCN4Cc4cccc(C(=O)O)n4)C3)nc12` [Compound 260] it is “***** (>2.5° C.=*****)”; for `Cc1cc(N2CC[C@](C)(c3ccccc3)C2)cn2nc(C(=O)N3C[C@H]4C[C@@H]3C4C(=O)O)nc12` (stereo partly drawn) [Compound 210] it is “***** (>2.5° C.=*****)”.
Same read-out and setting: the entry for `Cc1cc(N2CCC(C)(c3cccnc3)C2)cn2nc(C(=O)N3CC[C@@]4(CCN(c5cccc(C(=O)O)n5)C4)C3)nc12` (stereo partly drawn) [Compound 427] is “*** (>1-1.5° C.=***)”; for `Cc1cc(N2CC[C@](C)(c3ccccc3)C2)cn2nc(C(=O)NC3CC4(C3)CC(N3C[C@@H](O)[C@@H](O)C3)C4)nc12` (stereo partly drawn) [Compound 369] it is “***** (>2.5° C.=*****)”; for `Cc1cc(OC[C@H](C)c2ccccc2)cn2nc(C34CC(N)(CO3)C4)nc12` [Compound 61] it is “**** (>1.5-2.5° C.=****)”.
With `Cc1cc(N2CC[C@](C)(c3ccccc3)C2)cn2nc(C(=O)NC3(C(=O)O)CC3)nc12` [Compound 163], the DSF result is “***** (>2.5° C.=*****)”.

The same assay, now with this note: Table B; temperature shift [Tm]compound-[Tm]vehicle; recombinant WIL-FL T46L.
`Cc1cc(N2CC[C@](C)(c3ccccc3)C2)cn2nc(C34CC(CO3)C4N3CC4(CN(c5cccc(C(=O)O)n5)C4)NC3=O)nc12` (stereo partly drawn) [Compound 516]: the DSF entry is “***** (>2.5° C.=*****)”.
With `Cc1cc(N2CC[C@](C)(c3ccccc3)C2)cn2nc(C34CC(CO3)C4COC3CC4(C3)CN(c3ccnc(O)c3)C4)nc12` (stereo partly drawn) [Compound 497, 4-(6-((1-(8-methyl-6-((R)-3-methyl-3-phenylpyrrolidin-1-yl)-[1,2,4]triazolo[1,5-a]pyridin-2-yl)-2-oxabicyclo[2.1.1]hexan-5-yl)methoxy)-2-azaspiro[3.3]heptan-2-yl)pyridin-2-ol], the DSF result was “***** (>2.5° C.=*****)”.
For `Cc1ccc([C@@]2(C)CCN(c3cc(C)c4nc(C(=O)N5CC[C@@]6(CCN(c7cccc(C(=O)O)n7)C6)C5)nn4c3)C2)cc1` [Compound 750], the DSF entry is on record as “***** (>2.5° C.=*****)”.
Still for that read-out and setting: the entry for `Cc1cc(N2CC[C@](C)(c3ccccc3)C2)cn2nc(C34CC(C(=O)NCc5ccnc(C(=O)O)c5)(CO3)C4)nc12` [Compound 453] is “***** (>2.5° C.=*****)”; for `Cc1cc(N2CC[C@](C)(c3ccccc3)C2)cn2nc(C34CC(CO3)C4N3CC4(CN(C(=O)C5CC[C@@H](C(=O)O)O5)C4)NC3=O)nc12` (stereo partly drawn) [Compound 517] it is “***** (>2.5° C.=*****)”; for `CNC(=O)C12CC(NC(=O)c3nc4c(C)cc(N5CC[C@](C)(c6ccccc6)C5)cn4n3)(CO1)C2` [Compound 597] it is “***** (>2.5° C.=*****)”.
With `Cc1cc(N2CC[C@](C)(c3ccccc3)C2)cn2nc(C34CC(CO)(CO3)C4C(=O)O)nc12` (stereo partly drawn) [Compound 575, 4-(hydroxymethyl)-1-(8-methyl-6-((r)-3-methyl-3-phenylpyrrolidin-1-yl)-[1,2,4]triazolo[1,5-a]pyridin-2-yl)-2-oxabicyclo[2.1.1]hexane-5-carboxylic acid], the DSF entry was “***** (>2.5° C.=*****)”.
Same read-out and setting: the entry for `COC(C)(CC(=O)NCC12COC(c3nc4c(C)cc(N5CC[C@](C)(c6ccccc6)C5)cn4n3)(C1)C2c1nc(C)n[nH]1)C(=O)O` (stereo partly drawn) [Compound 589] is “***** (>2.5° C.=*****)”.
Same read-out and setting: the entry for `Cc1cc(N2CC[C@](C)(c3ccccc3)C2)cn2nc(C34CC(CO3)C4c3nc(NC(=O)C4CC(C)(C(=O)O)C4)n[nH]3)nc12` (stereo partly drawn) [Compound 555] is “***** (>2.5° C.=*****)”.
The same measure, in the same setting: the entry for `Cc1cc(N2CC[C@](C)(c3ccccc3)C2)cn2nc(C34CC(CO3)C4N3CC4(CCN(c5cccc(C(=O)O)n5)C4)NC3=O)nc12` (stereo partly drawn) [Compound 531, 6-[3-[1-[8-methyl-6-[(3R)-3-methyl-3-phenyl-pyrrolidin-1-yl]-[1,2,4]triazolo[1,5-a]pyridin-2-yl]-2-oxabicyclo[2.1.1]hexan-5-yl]-2-oxo-1,3,7-triazaspiro[4.4]nonan-7-yl]pyridine-2-carboxylic acid] is “***** (>2.5° C.=*****)”.
As for `Cc1cc(N2CC[C@](C)(c3ccccc3)C2)cn2nc(C(=O)NC34COC(CN(c5cccc(C(=O)O)n5)C3)C4)nc12` (mixture of isomers) [Compound 690, 6-[1-[[8-methyl-6-[rac-(3R)-3-methyl-3-phenyl-pyrrolidin-1-yl]-[1,2,4]triazolo[1,5-a]pyridine-2-carbonyl]amino]-6-oxa-3-azabicyclo[3.2.1]octan-3-yl]pyridine-2-carboxylic acid], the DSF entry was “***** (>2.5° C.=*****)”.
The same measure, in the same setting: the entry for `Cc1nc([C@@H]2[C@]3(C(C)(C)O)CO[C@@]2(c2nc4c(C)cc(N5CC[C@](C)(c6ccccc6)C5)cn4n2)C3)n[nH]1` [Compound 542] is “***** (>2.5° C.=*****)”; for `Cc1cc(N2CC[C@](C)(c3ccccc3)C2)cn2nc(C(=O)N3CC[C@@]4(CCN(C(=O)C5CC(C)(C(=O)O)C5)C4)C3)nc12` (stereo partly drawn) [Compound 709] it is “***** (>2.5° C.=*****)”.
The same measure, in the same setting: the entry for `Cc1cc(N2CC[C@](C)(c3ccccc3)C2)cn2nc(C(=O)N3CC[C@@]4(CCN(C(=O)C5CC56CC(C(=O)O)C6)C4)C3)nc12` (stereo partly drawn) [Compound 734] is “***** (>2.5° C.=*****)”; for `Cc1cc(N2CC[C@](C)(c3ccccc3)C2)cn2nc(C34CC(C(=O)N[C@@H](C)CO)(CO3)C4)nc12` [Compound 442] it is “***** (>2.5° C.=*****)”; for `Cc1cc(N2CC[C@](C)(c3ccccc3)C2)cn2nc(C(=O)N3CC[C@@]4(CCN(C(=O)C56CCC(C(=O)O)(CC5)OC6)C4)C3)nc12` [Compound 732] it is “***** (>2.5° C.=*****)”.
The same measure, in the same setting: the entry for `Cc1cc(N2CC[C@](C)(c3ccccc3)C2)cn2nc(C34CC(CO3)C4N3C[C@]4(CC[C@@H](C(=O)O)CC4)NC3=O)nc12` (stereo partly drawn) [Compound 526] is “***** (>2.5° C.=*****)”; for `Cc1cc(C2C3COC2(c2nc4c(C)cc(N5CC[C@](C)(c6ccccc6)C5)cn4n2)C3)[nH]n1` (stereo partly drawn) [Compound 484] it is “***** (>2.5° C.=*****)”; for `Cc1cc(N2CC[C@](C)(c3ccccc3)C2)cn2nc(C34CC(CO3)C4c3nc(NC(=O)C4CC5(CC(C(=O)O)C5)C4)n[nH]3)nc12` (stereo partly drawn) [Compound 560] it is “***** (>2.5° C.=*****)”.
